Test results taken from patent publication US7902225B2, “Mycobacterial inhibitors” (Janssen Pharmaceutica NV, priority 2005, dated 2011).
Where a name gives a salt, the structure may show the parent alone.

Tested on: not given
Test: not given
Settings: not given
CN(C)CCC(O)(c1cc(F)cc(F)c1)c1ccc2nc(-c3cccnc3)cc(-c3ccccc3)c2c1 (stereo not drawn) (as salt: salt) [Compound 8] showed a melting point of 151 °C. For COc1nc2c(C(O)(CCN(C)C)c3cc(F)cc(F)c3)cc(-c3cccnc3)cc2cc1-c1ccccc1 (stereo not drawn) (as salt: salt) [Compound 13], the melting point was 156 °C. Work on CN(C)CCC(O)(c1cc(F)cc(F)c1)c1cccc2nc(N(C)C)c(-c3ccccc3)cc12 (stereo not drawn) (as salt: salt) [Compound 10] yielded a melting point of 136 °C. In the case of COc1nc2c(C(O)(CCN(C)C)c3ccccc3)cc(Br)cc2cc1Cc1ccccc1 (stereo not drawn) [Compound 3], the melting point was 66 °C. In the case of CN(C)CCC(O)(Cc1c(Cc2ccccc2)c(-c2cccnc2)nc2ccccc12)c1cc(F)cc(F)c1 (stereo not drawn) [Compound 9], the melting point was 164 °C. Work on CN(C)CCC(O)(c1cccc2ccccc12)c1cc(Br)cc2cc(-c3ccccc3)c(=O)[nH]c12 (stereo not drawn) yielded a melting point of 190 °C. For CN(C)CCC(O)(Cc1c(Cc2ccccc2)c(-c2ccco2)nc2ccccc12)c1cc(F)cc(F)c1 (stereo not drawn) [Compound 5], the melting point was 130 °C. COc1nc2c(C(O)(CCN(C)C)c3ccccc3)cc(-c3cccnc3)cc2cc1Cc1ccccc1 (stereo not drawn) [Compound 14] showed a melting point of 180 °C. Work on CN(C)CCC(O)(c1ccccc1)c1cc(Br)cc2cc(Cc3ccccc3)c(N3CCOCC3)nc12 (stereo not drawn) [Compound 7] yielded a melting point of 70 °C.

Tested on: M. Smegmatis ATCC607
Test: In-vitro anti-bacterial activity against strain M. smegmatis ATCC607 (growth inhibition, Alamar Blue fluorescence)
Assay type: cell-based
Settings: 48 hours at 37° C.
Description: D.2. In-vitro Method for Testing Compounds for Anti-bacterial Activity Against Strain M. Smegmatis ATCC607. Flat-bottom, sterile 96well plastic microtiter plates were filled with 180 μl of sterile deionized water, supplemented with 0.25% BSA. Subsequently, stock solutions (7.8× final test concentration) of compounds were added in 45 μl volumes to a series of duplicate wells in column 2 so as to allow evaluation of their effects on bacterial growth. Serial five-fold dilutions (45 μl in 180 μl) were made directly in the microtiter plates from column 2 to 11 using a customised robot system (Zymark Corp., Hopkinton, Mass.). Pipette tips were changed after every 3 dilutions to minimize pipetting errors with high hydrophobic compounds. Untreated control samples with (column 1) and without (column 12) inoculum were included in each microtiter plate. Approximately 250 CFU per well of bacteria inoculum, in a volume of 100 μl in 2.8× Mueller-Hinton broth medium, was added to the rows […]. The same volume of broth medium without inoculum was added to column 12 in row A to H. The cultures were incubated at 37° C. for 48 hours in a humidified 5% CO2 atmosphere (incubator with open air valve and continuous ventilation). At the end of incubation, two days after inoculation, the bacterial growth was quantitated fluorometrically. Therefore Alamar Blue (10×) was added to all wells in a volume of 20 μl and plates were incubated for another 2 hours at […] The fluorescence was read in a computer-controlled fluorometer (Cytofluor, Biosearch) at an excitation wavelength of 530 nm and an emission wavelength of 590 nm (gain 30). The % growth inhibition achieved by the compounds was calculated according to standard methods. The pIC50 was defined as the 50% inhibitory concentration for bacterial growth.
In the case of CN(C)CCC(O)(c1cccc2ccccc12)c1cc(Br)cc2cc(Cc3ccccc3)c(-n3ccnc3)nc12 (stereo not drawn) [Compound 46], the “M. smegmatis (pIC50)” value was 6.6. With CN(C)CCC(O)(c1ccccc1)c1cc(Br)cc2cc(Cc3ccccc3)c(NCCCN3CCCC3=O)nc12 (stereo not drawn) [Compound 92] the “M. smegmatis (pIC50)” value was 5.2. In the case of CN(C)CCC(O)(c1ccccc1)c1cc(Br)cc2cc(Cc3ccccc3)c(-n3ccnc3)nc12 (stereo not drawn) [Compound 59], the “M. smegmatis (pIC50)” value was 5.8. For CN(C)CCC(O)(c1ccccc1)c1cc2nc(N3CCCC3)c(Cc3ccccc3)cc2cc1Br (stereo not drawn) [Compound 58], the “M. smegmatis (pIC50)” value was 5.8. In the case of CN(C)CCC(O)(c1ccccc1)c1cc(Br)cc2cc(Cc3ccccc3)c(-n3ccnn3)nc12 (stereo not drawn) [Compound 65], the “M. smegmatis (pIC50)” value was 5.2. In the case of COCCCNc1nc2c(C(O)(CCN(C)C)c3ccccc3)cc(Br)cc2cc1Cc1ccccc1 (stereo not drawn) [Compound 90], the “M. smegmatis (pIC50)” value was 5.5. With CCCCNc1nc2c(C(O)(CCN(C)C)c3ccccc3)cc(Br)cc2cc1Cc1ccccc1 (stereo not drawn) [Compound 93] the “M. smegmatis (pIC50)” value was 5.1. For COc1nc2cccc(C(O)(CCN(C)C)c3c(F)cccc3F)c2cc1-c1ccccc1 (stereo not drawn) [Compound 28], the “M. smegmatis (pIC50)” value was 5.1. For CN(C)CCC(O)(c1cccc2ccccc12)c1cc(Br)cc2cc(-c3ccccc3)c(-n3cncn3)nc12 (stereo not drawn) [Compound 56], the “M. smegmatis (pIC50)” value was 5.8. With CN(C)CCC(O)(c1cccc2ccccc12)c1cc(Br)cc2cc(Cc3ccccc3)c(N3CCN(O)CC3)nc12 (stereo not drawn) [Compound 49] the “M. smegmatis (pIC50)” value was 6.1. In the case of CC1CCN(c2nc3c(C(O)(CCN(C)C)c4ccccc4)cc(Br)cc3cc2Cc2ccccc2)CC1 (stereo not drawn) [Compound 91], the “M. smegmatis (pIC50)” value was 5.3. With CN(C)CCC(O)(c1ccccc1)c1cc2nc(N3CCN(C)CC3)c(Cc3ccccc3)cc2cc1Br (stereo not drawn) [Compound 61] the “M. smegmatis (pIC50)” value was 5.3. With CN(C)CCC(O)(c1ccccc1)c1cc(Br)cc2cc(Cc3ccccc3)c(N3CCN(c4ccccn4)CC3)nc12 (stereo not drawn) [Compound 85] the “M. smegmatis (pIC50)” value was 5.7. For CN(C)CCC(O)(c1ccccc1)c1cc(Br)cc2cc(Cc3ccccc3)c(N3CCN(Cc4ccccc4)CC3)nc12 (stereo not drawn) [Compound 79], the “M. smegmatis (pIC50)” value was 6.2. For CN(C)CCC(O)(c1ccccc1)c1cc(Br)cc2cc(Cc3ccccc3)c(N3CCCC3)nc12 (stereo not drawn) [Compound 80], the “M. smegmatis (pIC50)” value was 6.1. With CN(C)CCC(O)(c1cccc2ccccc12)c1cc(Br)cc2cc(Cc3ccccc3)c(N(C)C)nc12 (stereo not drawn) [Compound 57] the “M. smegmatis (pIC50)” value was 5.8. With CN(C)CCC(O)(c1cccc2ccccc12)c1cc(Br)cc2cc(Cc3ccccc3)c(N3CCN(Cc4ccc5c(c4)OCO5)CC3)nc12 (stereo not drawn) [Compound 45] the “M. smegmatis (pIC50)” value was 6.6.

Same assay, conditions: Mycolicibacterium smegmatis, 48 hours at 37° C., read-out: M. smegmatis (pIC50) (converted)
COc1nc2c(C(O)(CCN(C)C)c3ccccc3)cc(Br)cc2cc1Cc1ccccc1 (stereo not drawn) [Compound 3] gave an IC50 of 1260 nM. For CN(C)CCOc1nc2c(C(O)(CCN(C)C)c3ccccc3)cc(Br)cc2cc1Cc1ccccc1 (stereo not drawn) [Compound 75], the IC50 was 6310 nM. For CN(C)CCC(O)(c1ccccc1)c1cc(Br)cc2cc(Cc3ccccc3)c(OCCN3CCCCC3)nc12 (stereo not drawn) [Compound 11], the IC50 was 3160 nM. With CN(C)CCC(O)(Cc1c(Cc2ccccc2)c(-c2cccnc2)nc2ccccc12)c1cc(F)cc(F)c1 (stereo not drawn) [Compound 9] the IC50 was 6310 nM. For CN(C)CCC(O)(c1cc(F)cc(F)c1)c1cccc2nc(N3CCN(C)CC3)c(-c3ccccc3)cc12 (stereo not drawn) [Compound 32], the IC50 was 10000 nM. COc1nc2c(C(O)(CCN(C)C)c3cccs3)cc(Br)cc2cc1Cc1ccccc1 (stereo not drawn) [Compound 15] gave an IC50 of 7940 nM. CN(C)CCC(O)(Cc1c(-c2ccccc2)c(-c2ccco2)nc2ccccc12)c1cc(F)cc(F)c1 (stereo not drawn) [Compound 39] gave an IC50 of 1260 nM. In the case of CN(C)CCC(O)(c1ccc2nc(-c3cccnc3)cc(-c3ccccc3)c2c1)c1ccco1 (stereo not drawn) [Compound 72], the IC50 was 6310 nM. With CN(C)CCC(O)(c1cccc2ccccc12)c1cc(Br)cc2cc(Cc3ccccc3)c(N3CCN(c4n[nH]c5ccccc45)CC3)nc12 (stereo not drawn) [Compound 48] the IC50 was 631 nM. In the case of CN(C)CCC(O)(c1cccc2ccccc12)c1cc(Br)cc2cc(Cc3ccccc3)c(N3CCN(Cc4ccccc4)CC3)nc12 (stereo not drawn) [Compound 47], the IC50 was 398 nM. Molecule CN(C)CCC(O)(c1cc(F)cc(F)c1)c1cccc2nc(N(C)C)c(-c3ccccc3)cc12 (stereo not drawn) [Compound 10] has an IC50 of 2000 nM. Work on COc1nc2ccc(C(O)(CCN(C)C)c3cc(F)cc(F)c3)cc2cc1Cc1ccc(C)cc1 (stereo not drawn) [Compound 2] yielded an IC50 of 1260 nM. In the case of CN(C)CCC(O)(c1ccccc1)c1cc(Br)cc2cc(Cc3ccccc3)c(NCCCN3CCOCC3)nc12 (stereo not drawn) [Compound 87], the IC50 was 2510 nM. For COc1nc2cccc(C(O)(CCN(C)C)c3ccc4ccccc4c3)c2cc1-c1ccccc1 (stereo not drawn) [Compound 19], the IC50 was 7940 nM. CN(C)CCC(O)(c1ccccc1)c1cc(Br)cc2cc(Cc3ccccc3)c(N(C)C)nc12 (stereo not drawn) [Compound 78] gave an IC50 of 1580 nM. For CN(C)CCC(O)(c1ccccc1)c1cc(Br)cc2cc(Cc3ccccc3)c(N3CC=CCC3)nc12 (stereo not drawn) [Compound 81], the IC50 was 1260 nM. For CC(=O)c1ccc(N2CCN(c3nc4c(C(O)(CCN(C)C)c5ccccc5)cc(Br)cc4cc3Cc3ccccc3)CC2)cc1 (stereo not drawn) [Compound 82], the IC50 was 1580 nM. With CN(C)CCC(O)(c1cc(F)cc(F)c1)c1ccc2nc(-c3cccnc3)cc(-c3ccccc3)c2c1 (stereo not drawn) [Compound 8] the IC50 was 1580 nM. With CN(C)CCC(O)(c1ccccc1)c1cc(-c2cccnc2)cc2cc(-c3ccccc3)c(-c3cccnc3)nc12 (stereo not drawn) [Compound 76] the IC50 was 1580 nM. CN(C)CCC(O)(c1ccccc1)c1cc2nc(N(C)C)c(Cc3ccccc3)cc2cc1Br (stereo not drawn) [Compound 67] showed an IC50 of 20000 nM. Work on COc1nc2cccc(C(O)(CCN(C)C)c3cc(F)cc(F)c3)c2cc1-c1ccccc1 (stereo not drawn) [Compound 1] yielded an IC50 of 1260 nM. In the case of CN(C)CCC(O)(Cc1c(Cc2ccccc2)c(-c2ccco2)nc2ccccc12)c1cc(F)cc(F)c1 (stereo not drawn) [Compound 5], the IC50 was 398 nM. CN(C)CCC(O)(c1cc(F)cc(F)c1)c1cccc2nc(-n3cncn3)c(-c3ccccc3)cc12 (stereo not drawn) [Compound 33] showed an IC50 of 31600 nM. COc1nc2cccc(C(O)(CCN(C)C)c3ccccc3)c2cc1-c1ccccc1 (stereo not drawn) [Compound 20] gave an IC50 of 31600 nM. For COc1cc(-c2ccccc2)c2cc(C(O)(CCN(C)C)c3ccco3)ccc2n1 (stereo not drawn) [Compound 29], the IC50 was 31600 nM. COc1nc2c(C(O)(CCN(C)C)c3ccccc3)cc(-c3cccnc3)cc2cc1Cc1ccccc1 (stereo not drawn) [Compound 14] gave an IC50 of 7940 nM. In the case of COc1nc2c(C(O)(CCN(C)C)c3ccco3)cc(Br)cc2cc1-c1ccccc1 (stereo not drawn) [Compound 26], the IC50 was 2000 nM. In the case of CN(C)CCC(O)(c1ccccc1)c1cc(Br)cc2cc(Cc3ccccc3)c(N3CCN(c4ncccn4)CC3)nc12 (stereo not drawn) [Compound 89], the IC50 was 2510 nM. With CN(C)CCC(O)(c1ccccc1)c1cc2nc(N3CCN(Cc4ccc5c(c4)OCO5)CC3)c(Cc3ccccc3)cc2cc1Br (stereo not drawn) [Compound 60] the IC50 was 2000 nM. Work on CN(C)CCC(O)(Cc1c(Cc2ccccc2)c(-c2ccsc2)nc2ccccc12)c1cc(F)cc(F)c1 (stereo not drawn) [Compound 40] yielded an IC50 of 7940 nM. Cc1cc(-c2ccccc2)c2cc(C(O)(CCN(C)C)c3ccccc3)ccc2n1 (stereo not drawn) [Compound 43] showed an IC50 of 12600 nM. Molecule CN(C)CCC(O)(c1ccco1)c1cc(Br)cc2cc(-c3ccccc3)c(-n3ccnc3)nc12 (stereo not drawn) [Compound 63] has an IC50 of 6310 nM. With CN(C)CCC(O)(c1cccc2ccccc12)c1cccc2nc(N3CCN(C)CC3)c(-c3ccccc3)cc12 (stereo not drawn) [Compound 36] the IC50 was 10000 nM. For COc1nc2c(C(O)(CCN(C)C)c3cc(F)cc(F)c3)cc(-c3cccnc3)cc2cc1-c1ccccc1 (stereo not drawn) [Compound 13], the IC50 was 398 nM. For CN(C)CCC(O)(c1ccccc1)c1cc(Br)cc2cc(Cc3ccccc3)c(N3CCC(C(N)=O)CC3)nc12 (stereo not drawn) [Compound 94], the IC50 was 7940 nM. Molecule CN(C)CCC(O)(c1cccs1)c1cc(Br)cc2cc(Cc3ccccc3)c(N3CCN(C)CC3)nc12 (stereo not drawn) [Compound 35] has an IC50 of 1580 nM. Work on CN(C)CCC(O)(c1ccccc1)c1cc(Br)cc2cc(Cc3ccccc3)c(N3CCOCC3)nc12 (stereo not drawn) [Compound 7] yielded an IC50 of 1580 nM. In the case of CN(C)CCC(O)(Cc1c(Cc2ccccc2)c(-c2ccccc2)nc2ccccc12)c1cc(F)cc(F)c1 (stereo not drawn) [Compound 42], the IC50 was 39800 nM. In the case of COc1nc2c(C(O)(CCN(C)C)c3cccs3)cc(C)cc2cc1Cc1ccccc1 (stereo not drawn) [Compound 16], the IC50 was 1580 nM.

Tested on: Mycobacterium tuberculosis (strain H37RV)
Test: In-vitro testing of compounds against M. tuberculosis (growth inhibition, Resazurin fluorescence)
Assay type: cell-based
Settings: Mycobacterium tuberculosis, 168 h, bacterial growth inhibition, 7 days at 37° C., read-out: M. tuberculosis (pIC50) (converted)
Molecule CN(C)CCOc1nc2c(C(O)(CCN(C)C)c3ccccc3)cc(Br)cc2cc1Cc1ccccc1 (stereo not drawn) [Compound 75] has an IC50 of 5010 nM. Work on CN(C)CCC(O)(c1ccccc1)c1cc(Br)cc2cc(Cc3ccccc3)c(OCCN3CCCCC3)nc12 (stereo not drawn) [Compound 11] yielded an IC50 of 3160 nM.

Same assay, conditions: bacterial growth inhibition, 7 days at 37° C.
In the case of CN(C)CCC(O)(c1ccccc1)c1cc(Br)cc2cc(Cc3ccccc3)c(N3CCN(Cc4ccccc4)CC3)nc12 (stereo not drawn) [Compound 79], the “M. tuberculosis (pIC50)” value was 4.6. With CN(C)CCC(O)(c1ccccc1)c1cc(Br)cc2cc(Cc3ccccc3)c(N3CCCC3)nc12 (stereo not drawn) [Compound 80] the “M. tuberculosis (pIC50)” value was 5.05.
